System: participants with narcolepsy or OSA
Experiment: 1-year OLE study: clinical laboratory assessments (total cholesterol, triglycerides, glucose), OLE baseline to week 40
Format: in vivo, human
Description: A 1-year open-label extension (OLE) study was performed with 374 participants to examined whether clinically significant weight loss (≥5%) in this population had favorable effects on biomarkers of cardiovascular risk compared to no such weight loss. The study measured changes in weight and BP (parent study baseline to OLE week 40) and clinical laboratory assessments (OLE baseline to week 40) in participants with narcolepsy (n=124) or OSA (n=250) who received solriamfetol at doses of 75, 150, or 300 mg/d.
We evaluated changes in weight and BP (parent study baseline to OLE week 40) and clinical laboratory assessments (OLE baseline to week 40) in participants with narcolepsy (n=124) or OSA (n=250) from the OLE study.

[1] = Weight loss <5% at Week 40, 75 mg/d
[2] = Weight loss <5% at Week 40, 150 mg/d
[3] = Weight loss <5% at Week 40, 300 mg/d
[4] = Weight loss <5% at Week 40, all doses
[5] = Weight loss ≥5% at Week 40, 75 mg/d
[6] = Weight loss ≥5% at Week 40, 150 mg/d
[7] = Weight loss ≥5% at Week 40, 300 mg/d
[8] = Weight loss ≥5% at Week 40, all doses

## NC(=O)OC[C@H](N)Cc1ccccc1 [Solriamfetol, (R)-2-amino-3-phenylpropyl carbamate]
[1]
  Glucose Change - Wk 40, Mean (SD): −0.1 (3.0) mmol/L
  Glucose Change - Wk 40, Median: 0.2 mmol/L
  Glucose category High, Week 40: 16(76.2) n (%)
  Glucose category Low, Week 40: 0 n (%)
  Glucose category Normal, Week 40: 5(23.8) n (%)
  TC Change - Wk 40, Mean (SD): −0.1 (0.7) mmol/L
  TC Change - Wk 40, Median: 0.2 mmol/L
  TG Change - Wk 40, Mean (SD): 0.2 (0.9) mmol/L
  TG Change - Wk 40, Median: -0.1 mmol/L
  Total cholesterol category High, Week 40: 8(38.1) n (%)
  Total cholesterol category Low, Week 40: 0 n (%)
  Total cholesterol category Normal, Week 40: 13(61.9) n (%)
  Triglycerides category High, Week 40: 11(52.4) n (%)
  Triglycerides category Low, Week 40: 0 n (%)
  Triglycerides category Normal, Week 40: 10(47.6) n (%)
[2]
  Glucose Change - Wk 40, Mean (SD): −0.1 (1.1) mmol/L
  Glucose Change - Wk 40, Median: -0.1 mmol/L
  Glucose category High, Week 40: 47(46.1) n (%)
  Glucose category Low, Week 40: 0 n (%)
  Glucose category Normal, Week 40: 55(53.9) n (%)
  TC Change - Wk 40, Mean (SD): 0.1 (0.7) mmol/L
  TC Change - Wk 40, Median: 0.1 mmol/L
  TG Change - Wk 40, Mean (SD): −0.1 (1.0) mmol/L
  TG Change - Wk 40, Median: -0.0 mmol/L
  Total cholesterol category High, Week 40: 46(44.2) n (%)
  Total cholesterol category Low, Week 40: 0 n (%)
  Total cholesterol category Normal, Week 40: 58(55.8) n (%)
  Triglycerides category High, Week 40: 39(37.5) n (%)
  Triglycerides category Low, Week 40: 0 n (%)
  Triglycerides category Normal, Week 40: 65(62.5) n (%)
[3]
  Glucose Change - Wk 40, Mean (SD): −0.1 (1.9) mmol/L
  Glucose Change - Wk 40, Median: 0.0 mmol/L
  Glucose category High, Week 40: 69(48.9) n (%)
  Glucose category Low, Week 40: 0 n (%)
  Glucose category Normal, Week 40: 72(51.1) n (%)
  TC Change - Wk 40, Mean (SD): 0.1 (0.6) mmol/L
  TC Change - Wk 40, Median: 0.100 mmol/L
  TG Change - Wk 40, Mean (SD): 0.0 (0.7) mmol/L
  TG Change - Wk 40, Median: -0.1 mmol/L
  Total cholesterol category High, Week 40: 46(31.9) n (%)
  Total cholesterol category Low, Week 40: 0 n (%)
  Total cholesterol category Normal, Week 40: 98(68.1) n (%)
  Triglycerides category High, Week 40: 50(34.7) n (%)
  Triglycerides category Low, Week 40: 0 n (%)
  Triglycerides category Normal, Week 40: 94(65.3) n (%)
[4]
  Glucose Change - Wk 40, Mean (SD): −0.1 (1.8) mmol/L
  Glucose Change - Wk 40, Median: -0.0 mmol/L
  Glucose category High, Week 40: 132(50.0) n (%)
  Glucose category Low, Week 40: 0 n (%)
  Glucose category Normal, Week 40: 132(50.0) n (%)
  TC Change - Wk 40, Mean (SD): 0.1 (0.6) mmol/L
  TC Change - Wk 40, Median: 0.100 mmol/L
  TG Change - Wk 40, Mean (SD): −0.0 (0.9) mmol/L
  TG Change - Wk 40, Median: -0.0 mmol/L
  Total cholesterol category High, Week 40: 100(37.2) n (%)
  Total cholesterol category Low, Week 40: 0 n (%)
  Total cholesterol category Normal, Week 40: 169(62.8) n (%)
  Triglycerides category High, Week 40: 100(37.2) n (%)
  Triglycerides category Low, Week 40: 0 n (%)
  Triglycerides category Normal, Week 40: 169(62.8) n (%)
[5]
  Glucose Change - Wk 40, Mean (SD): -0.5 mmol/L
  Glucose Change - Wk 40, Median: -0.5 mmol/L
  Glucose category High, Week 40: 1(100) n (%)
  Glucose category Low, Week 40: 0 n (%)
  Glucose category Normal, Week 40: 0 n (%)
  TC Change - Wk 40, Mean (SD): 1.1 mmol/L
  TC Change - Wk 40, Median: 1.1 mmol/L
  TG Change - Wk 40, Mean (SD): 0.3 mmol/L
  TG Change - Wk 40, Median: 0.3 mmol/L
  Total cholesterol category High, Week 40: 0 n (%)
  Total cholesterol category Low, Week 40: 0 n (%)
  Total cholesterol category Normal, Week 40: 1(100) n (%)
  Triglycerides category High, Week 40: 0 n (%)
  Triglycerides category Low, Week 40: 0 n (%)
  Triglycerides category Normal, Week 40: 1(100) n (%)
[6]
  Glucose Change - Wk 40, Mean (SD): −0.2 (0.8) mmol/L
  Glucose Change - Wk 40, Median: -0.2 mmol/L
  Glucose category High, Week 40: 7(31.8) n (%)
  Glucose category Low, Week 40: 0 n (%)
  Glucose category Normal, Week 40: 15(68.2) n (%)
  TC Change - Wk 40, Mean (SD): 0.2 (0.5) mmol/L
  TC Change - Wk 40, Median: 0.2 mmol/L
  TG Change - Wk 40, Mean (SD): −0.1 (0.4) mmol/L
  TG Change - Wk 40, Median: -0.2 mmol/L
  Total cholesterol category High, Week 40: 4(18.2) n (%)
  Total cholesterol category Low, Week 40: 0 n (%)
  Total cholesterol category Normal, Week 40: 18(81.8) n (%)
  Triglycerides category High, Week 40: 6(27.3) n (%)
  Triglycerides category Low, Week 40: 0 n (%)
  Triglycerides category Normal, Week 40: 16(72.7) n (%)
[7]
  Glucose Change - Wk 40, Mean (SD): −0.2 (1.5) mmol/L
  Glucose Change - Wk 40, Median: -0.1 mmol/L
  Glucose category High, Week 40: 19(26.0) n (%)
  Glucose category Low, Week 40: 0 n (%)
  Glucose category Normal, Week 40: 54(74.0) n (%)
  TC Change - Wk 40, Mean (SD): 0.2 (0.6) mmol/L
  TC Change - Wk 40, Median: 0.2 mmol/L
  TG Change - Wk 40, Mean (SD): −0.3 (1.0) mmol/L
  TG Change - Wk 40, Median: -0.2 mmol/L
  Total cholesterol category High, Week 40: 18(24.7) n (%)
  Total cholesterol category Low, Week 40: 0 n (%)
  Total cholesterol category Normal, Week 40: 55(75.3) n (%)
  Triglycerides category High, Week 40: 15(20.5) n (%)
  Triglycerides category Low, Week 40: 0 n (%)
  Triglycerides category Normal, Week 40: 58(79.5) n (%)
[8]
  Glucose Change - Wk 40, Mean (SD): −0.2 (1.4) mmol/L
  Glucose Change - Wk 40, Median: -0.1 mmol/L
  Glucose category High, Week 40: 27(28.1) n (%)
  Glucose category Low, Week 40: 0 n (%)
  Glucose category Normal, Week 40: 69(71.9) n (%)
  TC Change - Wk 40, Mean (SD): 0.2 (0.6) mmol/L
  TC Change - Wk 40, Median: 0.2 mmol/L
  TG Change - Wk 40, Mean (SD): −0.2 (0.9) mmol/L
  TG Change - Wk 40, Median: -0.2 mmol/L
  Total cholesterol category High, Week 40: 22(22.9) n (%)
  Total cholesterol category Low, Week 40: 0 n (%)
  Total cholesterol category Normal, Week 40: 74(77.1) n (%)
  Triglycerides category High, Week 40: 21(21.9) n (%)
  Triglycerides category Low, Week 40: 0 n (%)
  Triglycerides category Normal, Week 40: 75(78.1) n (%)
Participants with weight loss, week 40 (baseline 22.3%)
  percentage of participants with high total cholesterol: 22.9%
Participants with weight loss, week 40 (baseline 26.6%)
  percentage of participants with high triglycerides: 21.9%
Participants with weight loss, week 40 (baseline 36.6%)
  percentage of participants with high serum glucose: 28.1%
Participants without weight loss, week 40 (baseline 32.7%)
  percentage of participants with high total cholesterol: 37.2%
Participants without weight loss, week 40 (baseline 37.1%)
  percentage of participants with high triglycerides: 37.2%
Participants without weight loss, week 40 (baseline 43.3%)
  percentage of participants with high serum glucose: 50%

Reference: patent US20240358668A1, “METHODS AND CO[…] AM[…] CARD[…] USING (R)-2-AMINO-3-PH[…]” (AXSOME THERAPEUTICS, INC., priority 2021, published 2024)
